These results are taken from ChEMBL document CHEMBL3430912, “GSK Tres Cantos Anti-Kinetoplastid Screening (TCAKS) Data”.

The test system of data set [1] is Trypanosoma brucei brucei. Put plainly: GSK_TCAKS: pIC50 Trypanosoma brucei viability assay using luminiscence. Assay plates (1536-well) were prepared. T. brucei cultures were harvested and counted in a CASY cell counter. A parasite suspension was prepared at a final concentration of 5 * 10^4 cells/mL in complete HMI9 medium and 6uL was dispensed to all wells containing compounds using a Multidrop Combi dispenser. 6uL of HMI9 media with 0.4% DMSO were dispensed to control columns. Plates were incubated for 24 h at 37C, 5% CO2 then tempered for 10 min at room temperature. ATP content was quantified by adding 4 uL of CellTiter-Glo Reagent (Promega) according to the manufacturer's instructions. Luminescence was measured using a ViewLux. It counts as functional, organism-based. The note with it: Lister 427, CASY.

The test system of data set [2] is Trypanosoma cruzi. The experiment in a line: (§1) GSK_TCAKS: pIC50 H2C9 Imaging: H9c2 Host Cardiomyocytes. […] Cells were then washed once with PBS before infection. T. cruzi trypomastigotes, collected at days 5 to 8 after infection from LLC-MK2 parasite infected cultures, were allowed to swim out for 4h at 37C from a centrifuged pellet (2,500 rpm/10 min/room temperature). Trypomastigotes were then collected and counted in a CASY Cell Counter. Trypomastigotes, in supplemented DMEM, were added to H9c2 cultures in a multiplicity of infection of 1 and incubated for 18 h. Cells were washed once with PBS before incubation of the infected H9c2 monolayer with trypsin (Life-Technologies) to detach cells from the flask. Cells were counted in a CASY Cell Counter using a 150 um capillary and their density set at 5 * 10^4 cells per mL in supplemented assay DMEM. Infected H9c2 were dispensed into 384-well poly-lysine coated assay plates at 50uL per well using a Multidrop Combi dispenser. After seeding them, the plates were incubated at 37C, 5% CO2 for 72h. Cultures were then fixed and stained by addition of 50 uL of a solution containing 8% formaldehyde and 4 uM DRAQ5 DNA dye (BioStatus, UK) per well. […] Five images were collected per well for reliable statistical analysis. Automated image analysis was performed with a script developed on Acapella High Content Imaging and Analysis Software (PerkinElmer). Output: Number of H9c2 Host Cardiomyocytes nuclei to determine drug-related cytotoxicity. The data set is classed as functional, organism-based, Rattus norvegicus. The note with it: H9c2, 4 h.

The subject of data set [3] is Leishmania donovani. The experiment in a line: GSK_TCAKS: pIC50 Leishmania donovani Imaging: Amastigotes/Macrophages. Assay plates (384-well) were prepared by adding 250nL of compound to each well. For single shot assay, the final compound concentration was 5 uM. […] Automated image analysis was performed with a script developed on Acapella High Content Imaging and Analysis Software (PerkinElmer). Output: Average number of amastigotes per macrophage cell were reported for each well. It counts as functional, organism-based, Homo sapiens. The note with it: THP-1.

The next data set has as its system NIH3T3. The experiment in a line: GSK_TCAKS: pIC50 NIH 3T3 cell line viability assay using luminiscence. Tissue culture surface treated assay plates (1536-well) were used. […] The 100% cells survival control was determined exposing the host-cells to a 0.5% DMSO concentration, whereas the 100% toxicity control was achieved by seeding the cells in presence of Amphotericin B at 50uM. Plates were incubated for four days at 37C, 5% CO2. The assay readout was developed by addition of 5uL of CellTiter-Glo Reagent following the manufacturer's instructions. Luminiscence was measured using a ViewLux. The data set is classed as functional, cell-based. As to conditions: Mus musculus, NIH3T3, 96 h.

Data set [4] has as its system Leishmania donovani. Put plainly: GSK_TCAKS: pIC50 Leishmania donovani Imaging: Infected Macrophages. Assay plates (384-well) were prepared by adding 250nL of compound to each well. For single shot assay, the final compound concentration was 5 uM. […] Automated image analysis was performed with a script developed on Acapella High Content Imaging and Analysis Software (PerkinElmer). Output: Percent of infected macrophage cells were reported for each well. The note with it: THP-1. It counts as functional, organism-based, Homo sapiens.

The test system of data set [5] is Trypanosoma cruzi. The description is as §1, with “Trypanosoma cruzi” for “H2C9”, “Infected Cells.” for “H9c2 Host Cardiomyocytes.”, “percentage” for “Number”, “infected cells per well as a second infection marker.” for “H9c2 Host Cardiomyocytes nuclei to determine drug-related cytotoxicity.”. It counts as functional, organism-based, Rattus norvegicus. As to conditions: H9c2, 4 h.

For data set [6], the system named is Trypanosoma cruzi. The data set is described as §1, with “Trypanosoma cruzi” for “H2C9”, “Amastigotes/Cell.” for “H9c2 Host Cardiomyocytes.”, “number” for “Number”, “amastigotes per cell as infection level measurement.” for “H9c2 Host Cardiomyocytes nuclei to determine drug-related cytotoxicity.”. It counts as functional, organism-based, Rattus norvegicus. As to conditions: H9c2, 4 h.

Data set [7] in a line: GSK_TCAKS: pIC50 HepG2 human cell line viability assay using luminiscence. […] Seeding density was checked to ensure that new mono-layers were not more than 50% confluent at the time of harvesting. Cell suspension was added to 500 mL of the same medium at a final density of 1.2 * 10^5 cells/mL. This cell suspension was dispensed (25 uL, 3000 cells per well) into 384-well clear-bottom plates using a Multidrop Combi dispenser. Prior to addition of the cell suspension, the screening compounds (250 nL) were pre-dispensed into the plates with an Echo liquid handler. Plates were incubated for 48 h at 37C, 5% CO2. After incubation, plates equilibrated at room temperature for 30 min before proceeding to develop the luminescent signal. The signal developer, CellTiter-Glo Reagent, was allowed to equilibrate at room temperature for 30 min and added to the plates (25uL per well) using a Multidrop Combi dispenser. Plates were left for 10 min at room temperature for stabilization and then read using a ViewLux. It counts as toxicity, cell-based.

Data set [8] has as its system Trypanosoma cruzi. Put plainly: GSK_TCAKS: pIC50 Trypanosoma cruzi viability assay using beta-GAL activity. This assay was run at single shot at 5uM compound concentration per well. The biological reagents consisted of NIH-3T3 host cells and trypomastigotes parasitic cells; both cell types were set to a 3.3 * 10^5 cells/mL dilution in assay DMEM by means of a CASY cell counter device using a 60um capillary. 6 uL of the mixture were dispensed per well (about 1 * 10^3 host-cells and 1 * 10^3 parasites) with a Multidrop Combi dispenser. […] In all wells, the percentage of DMSO never exceeded 0.5%. Plates incubated for four days at 37C, 5% CO2. The substrate used for the assay fluorescence intensity (FLINT) readout was resorufin-beta-D-galactopiranoside (Sigma-Aldrich) at 5uM per well. It was diluted in PBS supplemented with the soft detergent Igepal (Fluka). It counts as functional, organism-based, Mus musculus. The note with it: Tulahuen, NIH3T3.

Data set [9] concerns the target Sterol 14-alpha demethylase (Trypanosoma cruzi (strain CL Brener), UniProt Q7Z1V1). The experiment in a line: GSK_TCAKS: pIC50 CYP51 from Trypanosoma cruzi. The data set is classed as functional.
The test system of data set [10] is Trypanosoma brucei brucei. The experiment in a line: GSK_TCAKS: pIC50 Trypanosoma brucei viability assay using fluorescence intensity. Assay plates (1536-well) were prepared by dispensing 25nL of compound solution per well using an Echo acoustic dispenser (Labcyte). The data set is classed as functional, organism-based. As to conditions: Lister 427, 2 h.
For data set [11], the system named is Leishmania donovani. Put plainly: GSK_TCAKS: pIC50 Leishmania donovani viability assay using fluorescence intensity. Assay plates (1536-well) were prepared by adding 30nL per well of compound. For single shot assay, the final compound concentration was 5uM. […] Briefly, eGFP LdBOB axenic amastigotes were harvested, fixed and counted in a CASY cell counter (Roche-Applied Science). A final concentration of 1.5 * 10^5 cells per well were prepared in amastigote media containing 500 U/mL penicillin/streptomycin (Invitrogen) and 6uL was dispensed to each experimental well using a Multidrop Combi dispenser (Thermo Scientific). 6uL of assay media was dispensed to control columns used as reference for 100% compound response. Following incubation for 72 h at 37C, 5% CO2, 2 uL of resazurin was added to each well at a final concentration of 0.5 mM in phosphate buffered saline (PBS) with IGEPAL (Sigma-Aldrich), 0.05% (v/v). It counts as functional, organism-based.

For data set [12], the system named is Leishmania donovani. Put plainly: GSK_TCAKS: pIC50 Leishmania donovani Imaging: THP-1 Host Macrophages. Assay plates (384-well) were prepared by adding 250nL of compound to each well. For single shot assay, the final compound concentration was 5 uM. […] Automated image analysis was performed with a script developed on Acapella High Content Imaging and Analysis Software (PerkinElmer). Output: THP-1 cell count were reported for each well. The data set is classed as functional, organism-based, Homo sapiens.

Sterol 14-alpha demethylase, sequence (Q7Z1V1 whole entry): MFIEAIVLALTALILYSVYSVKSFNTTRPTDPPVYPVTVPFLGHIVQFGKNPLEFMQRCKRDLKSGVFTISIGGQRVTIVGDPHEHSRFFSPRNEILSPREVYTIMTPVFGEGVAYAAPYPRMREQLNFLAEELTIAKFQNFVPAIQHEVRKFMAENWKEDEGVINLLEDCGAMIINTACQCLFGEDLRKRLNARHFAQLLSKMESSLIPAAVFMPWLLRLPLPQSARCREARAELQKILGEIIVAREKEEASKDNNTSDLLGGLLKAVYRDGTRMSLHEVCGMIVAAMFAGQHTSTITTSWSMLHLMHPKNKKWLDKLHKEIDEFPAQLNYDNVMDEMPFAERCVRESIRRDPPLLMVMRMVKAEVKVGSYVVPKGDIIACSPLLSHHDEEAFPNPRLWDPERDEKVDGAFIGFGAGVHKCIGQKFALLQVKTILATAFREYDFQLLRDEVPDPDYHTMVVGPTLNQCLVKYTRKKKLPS

On to `CN(C)Cc1ccc(-c2ccc(S(=O)(=O)NCC3CCCO3)c(F)c2)cc1` (stereo unspecified), for which the IC50 in [1] was 39.8 µM; in the data set on Trypanosoma cruzi [2] it was greater than 63.1 µM; in the data set with Leishmania donovani [3] it was greater than 63.1 µM; with NIH3T3, 15.8 µM; in the data set on Leishmania donovani [4], greater than 63.1 µM; in the data set with Trypanosoma cruzi [5], 5.01 µM. The concentration for half-maximal inhibition (IC50) in the data set on Trypanosoma cruzi [6] is 2 µM; with Trypanosoma cruzi [8], 1.26 µM; in [9], 39.8 µM; in [10], 25.1 µM; in the data set with Leishmania donovani [11], greater than 63.1 µM; in the data set on Leishmania donovani [12] it was greater than 63.1 µM. The compound also gave an IC50 at 48 h in [7] greater than 126 µM.

In the case of `Cc1sc(C)c(C(F)(F)F)c1CNCCCNc1cc(=O)c2ccccc2[nH]1`, the IC50 in data set [1] is 0.0126 µM; with Trypanosoma cruzi [2] it was greater than 50.1 µM; in the data set on Leishmania donovani [3], 25.1 µM; in the data set with NIH3T3, 10 µM; in the data set with Leishmania donovani [4], 50.1 µM; with Trypanosoma cruzi [5], 1 µM. Besides, the 50% inhibitory concentration (IC50) in the data set on Trypanosoma cruzi [6] is 0.501 µM; with Trypanosoma cruzi [8] it was 0.794 µM; in data set [9], 20 µM; in data set [10], 0.01 µM; in the data set on Leishmania donovani [11], greater than 50.1 µM; in the data set on Leishmania donovani [12] it was 31.6 µM. For the same compound, inhibition in [7] was half-maximal at 50.1 µM (IC50 at 48 h).

For `CC(C)N(C(=O)CN1C(=O)C(N)C(=O)N(c2ccccc2)c2ccccc21)c1ccccc1` (stereo unspecified), the 50% inhibitory concentration (IC50) in [1] was greater than 39.8 µM; in the data set with Trypanosoma cruzi [2], greater than 50.1 µM; in the data set with Leishmania donovani [3] it was greater than 50.1 µM; in the data set with NIH3T3, 20 µM; in the data set with Leishmania donovani [4], greater than 50.1 µM; in the data set with Trypanosoma cruzi [5] it was 0.316 µM. Moreover, the half-maximal inhibitory concentration (IC50) with Trypanosoma cruzi [6] was 0.398 µM; in the data set with Trypanosoma cruzi [8], 0.316 µM; in data set [9], 0.316 µM; in data set [10], greater than 39.8 µM; in the data set with Leishmania donovani [11], greater than 50.1 µM; with Leishmania donovani [12], greater than 50.1 µM. The IC50 at 48 h in data set [7] is greater than 100 µM.

As to `O=C1CCCCCC1(Cc1cnc[nH]1)c1ccc(Cl)cc1Cl` (stereo unspecified), the IC50 in [1] is greater than 39.8 µM; with Trypanosoma cruzi [2], greater than 50.1 µM; with Leishmania donovani [3], 6.31 µM; in the data set with NIH3T3, 20 µM; in the data set on Leishmania donovani [4], greater than 50.1 µM; in the data set on Trypanosoma cruzi [5], 0.251 µM. Moreover, the IC50 with Trypanosoma cruzi [6] is 0.316 µM; in the data set on Trypanosoma cruzi [8], 0.251 µM; in [9], 0.1 µM; in data set [10], greater than 39.8 µM; with Leishmania donovani [11], greater than 50.1 µM; in the data set on Leishmania donovani [12] it was greater than 50.1 µM. In data set [7], it took 79.4 µM to reach half-maximal inhibition (IC50 at 48 h).

Turning to `Clc1ccc(C(CC2CCCCO2)Cn2cncn2)c(Cl)c1` (stereo unspecified), the half-inhibitory concentration (IC50) is greater than 39.8 µM in data set [1]; greater than 50.1 µM in the data set on Trypanosoma cruzi [2]; greater than 50.1 µM in the data set with Leishmania donovani [3]; 39.8 µM with NIH3T3; greater than 50.1 µM with Leishmania donovani [4]; 1.26 µM with Trypanosoma cruzi [5]. Also, the IC50 in the data set on Trypanosoma cruzi [6] was 1 µM; in the data set with Trypanosoma cruzi [8] it was 0.398 µM; in data set [9], 0.251 µM; in data set [10] it was greater than 39.8 µM; in the data set on Leishmania donovani [11], 25.1 µM; in the data set on Leishmania donovani [12], greater than 50.1 µM. Moreover, the half-inhibitory concentration (IC50) at 48 h in data set [7] was greater than 100 µM.

On to `COc1ccc(CN(C)Cc2ccncc2)cc1-c1ccc(S(=O)(=O)NC2CCC2)s1`, for which the IC50 in [1] is 20 µM; with Trypanosoma cruzi [2], 10 µM; with Leishmania donovani [3], 15.8 µM; in the data set on NIH3T3 it was 25.1 µM; in the data set on Leishmania donovani [4], greater than 50.1 µM; in the data set on Trypanosoma cruzi [5] it was 0.631 µM. Besides, the IC50 in the data set with Trypanosoma cruzi [6] was 0.501 µM; in the data set on Trypanosoma cruzi [8], 0.501 µM; in data set [9], 0.0794 µM; in [10], greater than 39.8 µM; with Leishmania donovani [11], 39.8 µM; in the data set on Leishmania donovani [12], 20 µM. The same compound showed a 50% inhibitory concentration (IC50) at 48 h in [7] greater than 100 µM.

As to `Cc1nc2[nH]c(C)c(Cc3ccc(C(C)C)cc3)c(=O)n2n1`, the half-inhibitory concentration (IC50) in data set [1] is greater than 39.8 µM; in the data set with Trypanosoma cruzi [2], greater than 50.1 µM; in the data set on Leishmania donovani [3], 15.8 µM; in the data set on NIH3T3, greater than 50.1 µM; with Leishmania donovani [4], 31.6 µM; with Trypanosoma cruzi [5] it was 0.794 µM. The half-inhibitory concentration (IC50) is 0.251 µM in the data set with Trypanosoma cruzi [6]; 0.501 µM in the data set on Trypanosoma cruzi [8]; greater than 100 µM in data set [9]; greater than 39.8 µM in data set [10]; 1.26 µM with Leishmania donovani [11]; greater than 50.1 µM with Leishmania donovani [12]. In [7], this compound showed an IC50 at 48 h greater than 100 µM.
